We go through 3 compounds from patent US20250268959A1, “COMPOSITIONS CONTAINING INDOLE-DERIVED METABOLITES AND METHODS OF USE THEREOF” (Imvela Corp., priority 2024, published 2025).

The conditions of test [1]: rats; IPA supplementation; over 1 week; cited from earlier work.
For test [2] the following is noted: mice; IPA supplementation; in 2 weeks; cited from earlier work.
For test [3], the target named is T1, AhR (Homo sapiens, UniProt P35869).
T1 sequence (P35869 11-848): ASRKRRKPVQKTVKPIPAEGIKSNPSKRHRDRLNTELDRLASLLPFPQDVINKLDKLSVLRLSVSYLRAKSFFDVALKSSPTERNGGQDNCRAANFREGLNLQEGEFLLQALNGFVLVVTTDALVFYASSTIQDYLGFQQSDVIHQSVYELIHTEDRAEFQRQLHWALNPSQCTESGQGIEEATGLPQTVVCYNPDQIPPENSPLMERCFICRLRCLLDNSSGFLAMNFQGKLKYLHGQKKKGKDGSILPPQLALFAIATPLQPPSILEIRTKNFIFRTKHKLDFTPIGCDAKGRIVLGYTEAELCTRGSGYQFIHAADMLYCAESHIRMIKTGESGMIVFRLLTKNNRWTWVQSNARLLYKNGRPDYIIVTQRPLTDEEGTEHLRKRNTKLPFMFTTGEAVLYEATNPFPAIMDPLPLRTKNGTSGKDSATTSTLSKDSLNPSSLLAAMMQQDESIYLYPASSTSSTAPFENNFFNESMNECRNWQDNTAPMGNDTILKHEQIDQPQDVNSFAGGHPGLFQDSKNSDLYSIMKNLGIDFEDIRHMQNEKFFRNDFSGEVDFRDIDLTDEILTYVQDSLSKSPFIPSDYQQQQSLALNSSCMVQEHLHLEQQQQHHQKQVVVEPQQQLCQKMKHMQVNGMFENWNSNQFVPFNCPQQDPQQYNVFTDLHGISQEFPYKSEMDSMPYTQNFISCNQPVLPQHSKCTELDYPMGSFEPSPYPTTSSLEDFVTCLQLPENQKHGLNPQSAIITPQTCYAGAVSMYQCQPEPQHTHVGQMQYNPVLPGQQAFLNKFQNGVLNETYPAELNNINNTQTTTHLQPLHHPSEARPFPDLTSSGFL
Description: AhR activation, in vitro luminescence assay in human cell lines expressing AhR. The note with it: human cell line expressing AhR; 200 μM; normalized to methylcholanthrene (FIG. 5). The test is classed as cell-based. The protocol: (§1) The utility of ILA and IAld in multiple host was validated by an in vitro assay. Human or canine cell lines expressing AhR were exposed to ILA or IAld at 200 μM, and AhR activation was assayed using in vitro luminescence.

Test [4] deals with T2, AhR (Canis lupus familiaris, UniProt A0A8I3RSX6).
T2 sequence (A0A8I3RSX6 1-853): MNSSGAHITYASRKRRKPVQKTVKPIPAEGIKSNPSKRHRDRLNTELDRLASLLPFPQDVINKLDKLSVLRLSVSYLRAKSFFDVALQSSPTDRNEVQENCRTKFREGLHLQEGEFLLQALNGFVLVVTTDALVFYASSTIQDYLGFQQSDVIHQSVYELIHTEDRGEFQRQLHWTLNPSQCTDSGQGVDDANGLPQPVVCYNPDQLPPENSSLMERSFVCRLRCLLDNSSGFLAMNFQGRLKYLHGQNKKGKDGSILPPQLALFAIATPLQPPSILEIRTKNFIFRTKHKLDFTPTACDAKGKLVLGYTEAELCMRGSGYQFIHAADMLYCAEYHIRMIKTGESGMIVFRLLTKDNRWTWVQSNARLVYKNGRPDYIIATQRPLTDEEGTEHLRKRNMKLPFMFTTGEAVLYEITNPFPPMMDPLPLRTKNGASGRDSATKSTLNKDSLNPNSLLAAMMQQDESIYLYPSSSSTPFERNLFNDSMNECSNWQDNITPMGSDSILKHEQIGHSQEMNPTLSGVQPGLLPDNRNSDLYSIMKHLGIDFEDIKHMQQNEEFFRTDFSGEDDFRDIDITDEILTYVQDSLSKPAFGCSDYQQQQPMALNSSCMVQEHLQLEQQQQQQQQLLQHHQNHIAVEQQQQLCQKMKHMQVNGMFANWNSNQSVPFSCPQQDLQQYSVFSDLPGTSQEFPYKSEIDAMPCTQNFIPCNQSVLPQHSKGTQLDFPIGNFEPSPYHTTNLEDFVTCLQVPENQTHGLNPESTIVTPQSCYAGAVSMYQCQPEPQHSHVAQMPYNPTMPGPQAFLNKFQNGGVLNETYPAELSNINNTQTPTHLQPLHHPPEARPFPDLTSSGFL
Nature of the test: AhR activation, in vitro luminescence assay in canine cell lines expressing AhR. The following applies: canine cell line expressing AhR; 200 μM; normalized to methylcholanthrene (FIG. 5). The format is cell-based. The method, then:
as §1

Structures are written as SMILES. Read-outs that look alike come from different tables or passages of the source.

As to `O=C(O)CCc1c[nH]c2ccccc12` [IPA, indole-3-propionic acid], the “reduction of weight gain” value in test [1] is roughly 50%; in test [2], roughly 60%.
`O=Cc1c[nH]c2ccccc12` [IAld, indole-3-carboxaldehyde]: the AhR activation result on AhR [3] and on AhR [4] was “AhR activation was observed” in each case.
`O=C(O)C(O)Cc1c[nH]c2ccccc12` (stereo not drawn) [ILA, indole-3-lactic acid]: the AhR activation result on AhR [3] and at AhR [4] was “AhR activation was observed” each time.
